From patent US7211417B2, “Antibiotic P175-A and semisynthetic derivatives thereof” (priority 2003, dated 2007)
≈ marks a conversion by molar mass, not a printed value. Read-outs that look alike come from different tables or passages of the source.

Experiments:
Assay type in all cases: cell-based
[1] = test system: Staphylococcus aureus; experiment: MIC by broth dilution, Staphylococcus aureus
Protocol: (§1) The minimal inhibitory concentration (MIC), the lowest concentration of the antibiotic which inhibits growth of the test organism, is determined by the broth dilution method using Muller-Hinton II […] (Baltimore Biological Laboratories) following the recommendations of the National Committee for Clinical Laboratory Standards [Methods for dilution antimicrobial susceptibility tests for bacteria that grow aerobically. Approved standard M7-A2. National Committee for Clinical Laboratory Standards, Villanova, Pa.].
(§2) An inoculum level of 5×10^5 CFU/ml, and a range of antibiotic concentrations (64–0.06 μg/ml) is used. The MIC is determined after the microtiter plates are incubated for 18 hours at 35° C. in an ambient air incubator. The test organisms comprise a spectrum of the Gram-positive bacteria Staphylococcus aureus, Streptococcus pneumoniae, and Enterococcus sp., the Gram-negative bacteria Escherichia coli, and the yeast Candida albicans. These organisms include recent clinical isolates that are resistant to methicillin and vancomycin.

[2] = test system: Candida albicans; experiment: MIC by broth dilution, Candida albicans
Protocol: as §1, §2

[3] = test system: Bacillus subtilis; experiment: MIC by broth dilution, Bacillus subtilis
[4] = test system: Escherichia coli; experiment: MIC by broth dilution, Escherichia coli
Protocol: as §1, §2

[5] = test system: Enterococcus faecalis; experiment: MIC by broth dilution, Enterococcus faecalis
Protocol: as §1, §2

[6] = test system: Streptococcus pneumoniae GC 1894; experiment: MIC by broth dilution, Streptococcus pneumoniae GC 1894
Protocol: as §1, §2

[7] = test system: Escherichia coli (imp); experiment: MIC by broth dilution, Escherichia coli (imp)
Protocol: as §1, §2

[8] = 3 strains, including a methicillin-resistant strain (MRSA), 18 hours at 35° C., read-out: MIC
[9] = 2 strains, including a vancomycin-resistant strain (VRE), 18 hours at 35° C., read-out: MIC
[10] = Streptococcus pneumoniae, GC1894, Streptococcus pneumoniae GC 1894* (5% LHB), read-out: MIC
[11] = Streptococcus pneumoniae, GC1894, Streptococcus pneumoniae GC 1894+ (THY), read-out: MIC

| Structure (SMILES) | MIC [1, 8] | MIC ([2]; read-out: MIC) | MIC ([3]; read-out: MIC) | MIC ([4]; read-out: MIC) | MIC [5, 9] | MIC [6, 10] | MIC [6, 11] | MIC [7] | MIC ([1]; MRSA, 18 h) | MIC [2] | MIC [3] | MIC [4] | MIC ([5]; VRE, 18 h) | MIC ([6]; Streptococcus pneumoniae GC 1894+ (THY)) | MIC ([6]; Streptococcus pneumoniae, GC1894) |
| --- | --- | --- | --- | --- | --- | --- | --- | --- | --- | --- | --- | --- | --- | --- | --- |
| COc1c2ccc3c(=O)c4cc(C)n(CC(=O)N5CC(C(=O)O)NC(=O)C5C)c(=O)c4c(=O)c3c2c(O)c2c(=O)c3cccc(O)c3c(=O)c12 (centres unmarked) [Example 3, P175-A] | 0.06 to 0.25 µg/mL (≈ 0.0883 to 0.368 µM) | > 64 µg/mL | 0.12 µg/mL (≈ 0.177 µM) | > 64 µg/mL | < 0.06 µg/mL | 16 µg/mL (≈ 23.5 µM) | 8 µg/mL (≈ 11.8 µM) | 8 µg/mL (≈ 11.8 µM) | – | – | – | – | – | – | – |
| COC(=O)C1CN(C(=O)Cn2c(C)cc3c(=O)c4ccc5c(OC)c6c(=O)c7c(O)cccc7c(=O)c6c(O)c5c4c(=O)c3c2=O)C(C)C(=O)N1 (centres unmarked) [Example 4, P175-A methyl ester] | 0.06 to 0.12 µg/mL (≈ 0.0865 to 0.173 µM) | > 64 µg/mL | 0.12 µg/mL (≈ 0.173 µM) | > 64 µg/mL | < 0.06 µg/mL | 1 µg/mL (≈ 1.44 µM) | 2 µg/mL (≈ 2.88 µM) | 4 µg/mL (≈ 5.77 µM) | – | – | – | – | – | – | – |
| CCOC(=O)C1CN(C(=O)Cn2c(C)cc3c(=O)c4ccc5c(OC)c6c(=O)c7c(O)cccc7c(=O)c6c(O)c5c4c(=O)c3c2=O)C(C)C(=O)N1 (centres unmarked) [Example 5, P175-A ethyl ester] | 0.06 to 0.12 µg/mL (≈ 0.0848 to 0.17 µM) | > 64 µg/mL | 0.25 µg/mL (≈ 0.353 µM) | > 64 µg/mL | 0.25 to 0.5 µg/mL (≈ 0.353 to 0.707 µM) | 0.5 µg/mL (≈ 0.707 µM) | 1 µg/mL (≈ 1.41 µM) | 16 µg/mL (≈ 22.6 µM) | – | – | – | – | – | – | – |
| COc1c2ccc3c(=O)c4cc(C)n(CC(=O)N5CC(C(=O)OC(C)C)NC(=O)C5C)c(=O)c4c(=O)c3c2c(O)c2c(=O)c3cccc(O)c3c(=O)c12 (centres unmarked) [Example 6, P175-A isopropyl ester] | 1 to 4 µg/mL (≈ 1.39 to 5.54 µM) | > 64 µg/mL | 8 µg/mL (≈ 11.1 µM) | > 64 µg/mL | 4 µg/mL (≈ 5.54 µM) | 2 µg/mL (≈ 2.77 µM) | 4 µg/mL (≈ 5.54 µM) | 16 µg/mL (≈ 22.2 µM) | – | – | – | – | – | – | – |
| COc1c2ccc3c(=O)c4cc(C)n(CC(=O)N5CC(C(=O)OCc6ccccc6)NC(=O)C5C)c(=O)c4c(=O)c3c2c(O)c2c(=O)c3cccc(O)c3c(=O)c12 (centres unmarked) [Example 7, P175-A benzyl ester] | 0.12 to 2 µg/mL (≈ 0.156 to 2.6 µM) | > 64 µg/mL | 4 µg/mL (≈ 5.2 µM) | > 64 µg/mL | 2 to 8 µg/mL (≈ 2.6 to 10.4 µM) | 0.5 µg/mL (≈ 0.65 µM) | 0.25 µg/mL (≈ 0.325 µM) | 32 µg/mL (≈ 41.6 µM) | – | – | – | – | – | – | – |
| COC(=O)COC(=O)C1CN(C(=O)Cn2c(C)cc3c(=O)c4ccc5c(OC)c6c(=O)c7c(O)cccc7c(=O)c6c(O)c5c4c(=O)c3c2=O)C(C)C(=O)N1 (centres unmarked) [Example 8A] | – | – | – | – | – | – | – | 8 µg/mL (≈ 10.6 µM) | 0.5 to 2 µg/mL (≈ 0.665 to 2.66 µM) | > 64 µg/mL | 1 µg/mL (≈ 1.33 µM) | > 64 µg/mL | 0.5 to 1 µg/mL (≈ 0.665 to 1.33 µM) | 64 µg/mL (≈ 85.1 µM) | 64 µg/mL (≈ 85.1 µM) |
| COc1c2ccc3c(=O)c4cc(C)n(CC(=O)N5CC(C(=O)O)NC(=O)C5C)c(=O)c4c(=O)c3c2c(O)c2c(=O)c3cccc(OCC(=O)O)c3c(=O)c12 (centres unmarked) [Example 9D] | 8 to 16 µg/mL (≈ 10.8 to 21.7 µM) | > 64 µg/mL | 8 µg/mL (≈ 10.8 µM) | > 64 µg/mL | 8 µg/mL (≈ 10.8 µM) | > 64 µg/mL | 64 µg/mL (≈ 86.8 µM) | > 64 µg/mL | – | – | – | – | – | – | – |
